From patent US20250222063A1, “TOPICAL FORMULATION FOR USE IN THE TREATMENT OR PREVENTION OF DRY ITCHY SKIN” (MC2 THERAPEUTICS LTD, priority 2022, published 2025)
Non-standard residues stand in square brackets, D forms with d. Residues, ends and D or L forms follow the SMILES beside them. Sar = CNCC(=O)O

Experiments:
[1] = system: bovine serum albumin (BSA); test: In vitro protein carbamylation assay (14C-potassium cyanate, scintillation counting); assay type: biochemical; details: 10 mM nucleophile, 75 μM BSA, 25 μM 14C-Potassium Cyanate, 37° C., 72 hours, n=3
Protocol: The tests were performed as described below. 200 μL of a 0.5% BSA solution, 200 μL of test solution and 100 μL of a 5 μCi/mL 14 C-Potassium Cyanate solution was mixed in an Eppendorf tube (corresponding to a final concentration of 75 μM BSA, 25 μM 14 C-Potassium Cyanate, and 10 mM nucleophile). Samples run in triplicates (n=3). The Eppendorf tubes were incubated at 37° C. for 72 hours.
After incubation a volume of 100 μL of each sample was transferred to a new Eppendorf tube containing 100 μL of a 10% trichloroacetic acid (TCA) and kept at 4° C. overnight (for precipitation of BSA). Subsequently, the precipitated BSA was separated from the buffer by centrifugation (10000 rpm, 30 seconds). The supernatant was removed and the BSA pellet 10 was resuspended in 200 μL of a 10% solution of cold TCA (4° C.). The pellet was recovered by centrifugation (10000 rpm, 30 seconds) and supernatant was discarded. The BSA pellet was resuspended in 100 μL purified water (MilliQ) and transferred to a scintillation vial. The Eppendorf tube (previously containing the BSA pellet) was rinsed with an additional 100 μL purified water which al was transferred to the relevant scintillation vial.

[2] = Skin homogenate study (degradation half-life, LC-MS/MS); assay type: in vitro ADME, human; details: pooled human skin homogenate, 37° C., compound working solution 40 μg/mL mixed with equal volume of homogenate
Protocol: To identify which of the dipeptides was readily subject to degradation by proteases and other cell processes in the skin, a number of compounds where tested in a skin homogenate study as described below and the results are listed in table 3.
Dermatomed human skin from multiple skin donors was pooled, homogenized, and adjusted to a tissue concentration of 100 mg tissue per mL of homogenate. The homogenate was used immediately following preparation without any additional freeze/thaw cycles. Working solutions of each compound were prepared in Dulbecco's phosphate-buffered saline (DPBS) at 40 μg/mL. All solutions were pre-heated to 37° C. Equal volumes of skin homogenate and compound working solution were combined, mixed, held at 37° C., and sampled at 0, 15, 30, 60, 120, and 240 minutes. Samples were quenched with acidic acetonitrile, centrifuged, and prepared for LC-MS/MS analysis. Peak areas of each compound at each time-point were determined by LC-MS/MS.
The individual half-life of each dipeptide was determined.
The nature of the experiment should be considered indicative of the relative stability of each of the compounds rather than an absolute correlation to what would happen in vivo. The process of homogenizing the skin is likely to greatly accelerate the degradation. However, it is clear that there is substantial variation in the relative rates for each dipeptide. (See Table 3)

[3] = Aqueous stability in HBSS buffer at 40° C. (HPLC-UV); assay type: physicochemical; details: 3% wt/wt or 0.4% wt/wt in HBSS buffer, glass vials, 40° C., HPLC-UV, in % (unit assumed)
Protocol: An important aspect of formulating a stable topical product. Data in Table 4 below gives 1 month and 3 month stability data at 40° C. Compounds were dissolved at 3% wt/wt or 0.4% wt/wt (if 3% was not possible) in HBSS buffer and stored in glass vials at temperature. Samples were subsequently analyzed by HPLC-UV.

In the case of `N[C@@H](Cc1ccc(O)cc1)C(=O)N1CCC[C@H]1C(=O)O` [Tyr-Pro] (H-Tyr-Pro-OH), the “Degree of carbamylation (% relative to HBSS control)” value [1] was 32.8 % relative to HBSS control and the “Half life in skin homogenate” value [2] was 0.483 h.

For `C[C@H](N)C(=O)O` [Alanine, reference compound], the “Degree of carbamylation (% relative to HBSS control)” value [1] was 93.54 % relative to HBSS control.

With `NCC(=O)NC(CO)C(=O)O` (stereo not drawn) [Gly-Ser] the “Degree of carbamylation (% relative to HBSS control)” value [1] was 33.1 % relative to HBSS control, the “1 month aqueous stability at 40° C.” value [3] was 97.8 and the “3 month aqueous stability at 40° C.” value [3] was 70.7.

For `CC(C)C[C@H](NC(=O)[C@@H](O)[C@H](N)Cc1ccccc1)C(=O)O` [Bestatin, reference compound], the “Degree of carbamylation (% relative to HBSS control)” value [1] was 53.4 % relative to HBSS control.

With `NCC(=O)NCC(=O)O` [Gly-Gly] (H-Gly-Gly-OH) the “Half life in skin homogenate” value [2] was >8 h.

For `NCC(=O)N[C@@H](CC(=O)O)C(=O)O` [Gly-Asp] (H-Gly-Asp-OH), the “Half life in skin homogenate” value [2] was >8 h.

For `Cl.N=C(N)NCCC[C@H](N)C(=O)O` [Arg*HCl, reference compound], the “Degree of carbamylation (% relative to HBSS control)” value [1] was 66.1 % relative to HBSS control.

In the case of `NCC(=O)N[C@@H](CCC(N)=O)C(=O)O` [Gly-Gln] (H-Gly-Gln-OH), the “Degree of carbamylation (% relative to HBSS control)” value [1] was 32.99 % relative to HBSS control.

With `N[C@@H](Cc1c[nH]c2ccccc12)C(=O)NCC(=O)O` [Trp-Gly] (H-Trp-Gly-OH) the “Half life in skin homogenate” value [2] was 1.07 h.

In the case of `CN(CC(=O)O)C(=O)CN` [Gly-Sar] (H-Gly-[Sar]-OH), the “Half life in skin homogenate” value [2] was >8 h.

For `O=C(O)[C@@H]1CCCN1C(=O)[C@@H]1CCCN1` [Pro-Pro] (H-Pro-Pro-OH), the “Half life in skin homogenate” value [2] was 1.93 h.

For `NCCC(=O)N[C@@H](Cc1c[nH]cn1)C(=O)O` [Ala(b)-His (L-Carnosine)], the “Degree of carbamylation (% relative to HBSS control)” value [1] was 72.63 % relative to HBSS control, the “1 month aqueous stability at 40° C.” value [3] was 98.4 and the “3 month aqueous stability at 40° C.” value [3] was 99.7.

For `NCCNCC(=O)O` [N-β-aminoethyl-Gly], the “Degree of carbamylation (% relative to HBSS control)” value [1] was 29.7 % relative to HBSS control.

With `NC(=O)NCCC[C@H](N)C(=O)O` [Citrulline, reference compound] the “Degree of carbamylation (% relative to HBSS control)” value [1] was 81.7 % relative to HBSS control.

For `CC(C)C[C@H](NC(=O)[C@@H](N)Cc1cnc[nH]1)C(=O)O` [His-leu] (H-His-Leu-OH), the “Degree of carbamylation (% relative to HBSS control)” value [1] was 27.18 % relative to HBSS control.

In the case of `NCC(=O)N[C@@H](CCC(=O)O)C(=O)O` [Gly-Glu] (H-Gly-Glu-OH), the “1 month aqueous stability at 40° C.” value [3] was 99.0 and the “3 month aqueous stability at 40° C.” value [3] was 99.7.

In the case of `NC(=O)CC(NC(=O)C(N)Cc1c[nH]c2ccccc12)C(=O)O` (stereo not drawn) [Trp-Asn] (H-Trp-Asn-OH; configuration not given here), the “Half life in skin homogenate” value [2] was 0.75 h.

In the case of `CC(C)[C@H](NC(=O)CN)C(=O)O` [Gly-Val] (H-Gly-Val-OH), the “Half life in skin homogenate” value [2] was 0.8 h.

In the case of `CC[C@H](C)[C@H](N)C(=O)N1CCC[C@H]1C(=O)O` [Ile-Pro] (H-Ile-Pro-OH), the “Degree of carbamylation (% relative to HBSS control)” value [1] was 41.4 % relative to HBSS control, the “Half life in skin homogenate” value [2] was 2.25 h and the “1 month aqueous stability at 40° C.” value [3] was 99.1. For the same molecule, the “3 month aqueous stability at 40° C.” value [3] was 102.0.

In the case of `NCC(=O)N[C@@H](Cc1cnc[nH]1)C(=O)O` [Gly-His] (H-Gly-His-OH), the “Degree of carbamylation (% relative to HBSS control)” value [1] was 22.6 % relative to HBSS control, the “Half life in skin homogenate” value [2] was >8 h and the “1 month aqueous stability at 40° C.” value [3] was 99.8. The “3 month aqueous stability at 40° C.” value [3] was 79.3.

In the case of `C[C@@H](N)C(=O)NCC(=O)O` [Ala-Gly (D)] (H-[dA]-Gly-OH), the “Half life in skin homogenate” value [2] was >8 h.

With `NC(N)=NCCC[C@H](NC(=O)[C@@H](N)Cc1ccc(O)cc1)C(=O)O` [Tyr-Arg] the “Degree of carbamylation (% relative to HBSS control)” value [1] was 25.96 % relative to HBSS control.

With `N[C@@H](CC(=O)O)C(=O)N[C@@H](Cc1ccccc1)C(=O)O` [Asp-Phe] (H-Asp-Phe-OH) the “Half life in skin homogenate” value [2] was 1.28 h.

In the case of `NCCCC[C@H](N)C(=O)N1CCC[C@H]1C(=O)O` [Lys-Pro] (H-Lys-Pro-OH), the “Degree of carbamylation (% relative to HBSS control)” value [1] was 28.6 % relative to HBSS control and the “Half life in skin homogenate” value [2] was 0.867 h.

For `COC(=O)[C@H](Cc1ccccc1)NC(=O)[C@@H](N)CC(=O)O` [Aspartame] (H-Asp-Phe-OMe), the “Degree of carbamylation (% relative to HBSS control)” value [1] was 30.4 % relative to HBSS control.

For `C[C@H](NC(=O)[C@@H](N)Cc1ccc(O)cc1)C(=O)O` [Tyr-Ala], the “Degree of carbamylation (% relative to HBSS control)” value [1] was 26.1 % relative to HBSS control, the “Half life in skin homogenate” value [2] was 0.833 h and the “1 month aqueous stability at 40° C.” value [3] was 100.4. For the same molecule, the “3 month aqueous stability at 40° C.” value [3] was 94.0.

In the case of `CC(C)[C@H](N)C(=O)N1CCC[C@H]1C(=O)O` [Val-Pro] (H-Val-Pro-OH), the “Degree of carbamylation (% relative to HBSS control)” value [1] was 22.1 % relative to HBSS control, the “Half life in skin homogenate” value [2] was 0.65 h and the “1 month aqueous stability at 40° C.” value [3] was 90.5. For the same molecule, the “3 month aqueous stability at 40° C.” value [3] was 80.9.

For `CC(C)[C@H](N)C(=O)N[C@@H](Cc1ccc(O)cc1)C(=O)O` [Val-Tyr] (H-Val-Tyr-OH), the “Degree of carbamylation (% relative to HBSS control)” value [1] was 28.9 % relative to HBSS control, the “Half life in skin homogenate” value [2] was <0.125 h and the “1 month aqueous stability at 40° C.” value [3] was 100.7. For the same molecule, the “3 month aqueous stability at 40° C.” value [3] was 98.2.

In the case of `CN(CC(=O)O)C(=N)N` [Creatine, reference compound], the “Degree of carbamylation (% relative to HBSS control)” value [1] was 103.92 % relative to HBSS control.

With `C[C@H](NC(=O)CN)C(=O)O` [Gly-Ala] (H-Gly-Ala-OH) the “Degree of carbamylation (% relative to HBSS control)” value [1] was 35.27 % relative to HBSS control.

In the case of `NCCCC[C@H](N)C(=O)O` [Lysine, reference compound], the “Degree of carbamylation (% relative to HBSS control)” value [1] was 71.63 % relative to HBSS control.

For `NCC(=O)N1CCC[C@H]1C(=O)O` [Gly-Pro] (H-Gly-Pro-OH), the “Half life in skin homogenate” value [2] was >8 h.

For `NC(Cc1c[nH]c2ccccc12)C(=O)N1CCCC1C(=O)O` (stereo not drawn) [Trp-Pro], the “Half life in skin homogenate” value [2] was 0.567 h.

With `NCCS(=O)(=O)O` [Taurine, reference compound] the “Degree of carbamylation (% relative to HBSS control)” value [1] was 58.17 % relative to HBSS control.

With `N[C@@H](CO)C(=O)N1CCC[C@H]1C(=O)O` [Ser-Pro] (H-Ser-Pro-OH) the “Degree of carbamylation (% relative to HBSS control)” value [1] was 26.4 % relative to HBSS control, the “Half life in skin homogenate” value [2] was 0.683 h and the “1 month aqueous stability at 40° C.” value [3] was 95.5. The “3 month aqueous stability at 40° C.” value [3] was 88.5.

With `C[C@H](N)C(=O)N[C@H](C)C(=O)O` [Ala-D-Ala] (H-Ala-[dA]-OH) the “Half life in skin homogenate” value [2] was >8 h.

In the case of `NC(=O)CC[C@H](N)C(=O)O` [Glutamine, reference compound], the “Degree of carbamylation (% relative to HBSS control)” value [1] was 74.39 % relative to HBSS control.

For `C[C@H](N)C(=O)N[C@@H](C)C(=O)O` [Ala-Ala] (H-Ala-Ala-OH), the “Half life in skin homogenate” value [2] was 0.383 h.

In the case of `N[C@@H](Cc1c[nH]cn1)C(=O)O` [Histidine, reference compound], the “Degree of carbamylation (% relative to HBSS control)” value [1] was 61.1 % relative to HBSS control.

In the case of `N=C(N)NCCC[C@H](N)C(=O)O` [Arg, Arginine, reference compound], the “Degree of carbamylation (% relative to HBSS control)” value [1] was 52.4 % relative to HBSS control.

With `C[C@H](N)C(=O)NCC(=O)O` [Ala-Gly] (H-Ala-Gly-OH) the “Half life in skin homogenate” value [2] was 1 h.
